Laboratory results as given in patent US20160046618A1, “Cyclopropyl Fused Thiazin-2-Amine Compounds as Beta-Secretase Inhibitors and Methods of Use” (AMGEN INC., priority 2014, published 2016).

Columns and labels:
[1] = molecular target: Recombinant Cat D (Homo sapiens (Human), UniProt P07339); assay: In vitro enzymatic Cathepsin D (Cat D) FRET assay; type: biochemical; settings: read-out: IC50 IP (μM) CatD
Outline: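 Cleavage of a 20 nM fluorophore/quencher peptide by CHO-expressed recombinant Cat D proceeded for one hour at pH 3.5 (0.05 M citrate, 5 mM CHAPS, 10% DMSO final). Tris addition neutralized the pH to end the reaction. Fluorescence was then measured (ex 500 nm/em 580 nm).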

[2] = molecular target: human recombinant BACE2 (Homo sapiens (Human), UniProt Q9Y5Z0); assay: In vitro enzymatic BACE2 FRET assay; type: biochemical; settings: read-out: IC50 IP (μM) BACE2 enzyme
Sequence of human recombinant BACE2 (Q9Y5Z0 63-518): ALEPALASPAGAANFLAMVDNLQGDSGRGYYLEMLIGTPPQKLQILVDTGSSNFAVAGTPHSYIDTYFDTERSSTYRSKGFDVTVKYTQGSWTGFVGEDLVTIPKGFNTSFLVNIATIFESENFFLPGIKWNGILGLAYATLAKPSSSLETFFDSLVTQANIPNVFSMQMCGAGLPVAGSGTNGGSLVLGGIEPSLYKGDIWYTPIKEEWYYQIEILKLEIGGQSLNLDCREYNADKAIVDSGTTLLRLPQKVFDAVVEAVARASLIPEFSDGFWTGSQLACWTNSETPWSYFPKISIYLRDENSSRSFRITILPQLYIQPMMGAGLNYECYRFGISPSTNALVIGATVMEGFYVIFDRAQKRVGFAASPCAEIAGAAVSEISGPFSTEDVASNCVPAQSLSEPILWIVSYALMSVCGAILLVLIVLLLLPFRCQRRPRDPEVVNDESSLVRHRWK
Outline: (§1)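 FRET cleavage assay using Ni-NTA-purified recombinant protease and 50 nM quenched peptide substrate, 1 h. Stopped by neutralising with Tris; fluorescence at 488/590 nm.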

[3] = tested on: Aβ40 in conditioned medium of cells stably expressing Amyloid Precursor Protein (APP); assay: In vitro BACE-1 cell-based assay (Aβ40 sandwich ELISA); settings: read-out: IC50 IP (μM) BACE1 cell
Outline: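 APP-stable cells, pre-cultured 24 h at 37° C in DMEM/10% FBS, were treated 24 h with compound in a 10-point series starting at 100 μM or 10 μM (0.1% DMSO final). Secreted Aβ40 in conditioned medium was measured by pAb40/biotin-6E10 sandwich ELISA with Europium time-resolved fluorescence; IC50 from percent inhibition versus concentration.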

[4] = molecular target: human recombinant BACE1 (Homo sapiens (Human), UniProt P56817); assay: In vitro enzymatic BACE1 FRET assay; type: biochemical; settings: read-out: IC50 IP (μM) BACE1 enzyme
Sequence of human recombinant BACE1 (P56817 46-501): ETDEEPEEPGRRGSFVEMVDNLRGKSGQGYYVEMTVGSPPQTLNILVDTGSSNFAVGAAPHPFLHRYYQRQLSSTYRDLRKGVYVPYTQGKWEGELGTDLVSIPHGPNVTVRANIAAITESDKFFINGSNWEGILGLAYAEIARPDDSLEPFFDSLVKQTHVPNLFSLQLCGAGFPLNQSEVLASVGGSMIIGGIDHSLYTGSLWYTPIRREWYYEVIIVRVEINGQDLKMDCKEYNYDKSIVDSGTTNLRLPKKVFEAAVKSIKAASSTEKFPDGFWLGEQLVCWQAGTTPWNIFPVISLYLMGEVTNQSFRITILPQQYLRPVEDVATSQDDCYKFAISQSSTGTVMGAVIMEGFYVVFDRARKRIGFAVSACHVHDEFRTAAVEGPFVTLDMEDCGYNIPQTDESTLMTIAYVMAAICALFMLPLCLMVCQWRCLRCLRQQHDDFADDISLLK
Outline: as §1

Sequence of Recombinant Cat D (P07339 65-412): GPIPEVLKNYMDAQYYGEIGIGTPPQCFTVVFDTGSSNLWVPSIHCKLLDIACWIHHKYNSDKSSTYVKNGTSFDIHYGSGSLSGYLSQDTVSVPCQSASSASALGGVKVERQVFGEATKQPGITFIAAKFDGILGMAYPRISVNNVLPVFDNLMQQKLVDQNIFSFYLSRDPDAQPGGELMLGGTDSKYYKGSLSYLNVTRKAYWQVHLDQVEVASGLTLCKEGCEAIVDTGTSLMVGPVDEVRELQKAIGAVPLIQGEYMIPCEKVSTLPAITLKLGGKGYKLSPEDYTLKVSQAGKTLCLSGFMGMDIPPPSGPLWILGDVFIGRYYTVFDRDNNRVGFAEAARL

| Compound | IC50 [1] [µM] | IC50 [2] [µM] | IC50 [3] [µM] | IC50 [4] [µM] |
| --- | --- | --- | --- | --- |
| COC[C@]12C[C@H]1[C@@](CF)(c1cc(NC(=O)c3ncc(C#N)cc3C)ccc1F)N=C(N)S2 [Example 716, N-(3-((1S,5S,6S)-3-amino-5-(fluoromethyl)-1-(methoxymethyl)-2-thia-4-azabicyclo[4.1.0]hept-3-en-5-yl)-4-fluorophenyl)-5-cyano-3-methyl-2-pyridinecarboxamide] | 2290 | 0.00196 | 0.00431 | 0.00216 |
| COC[C@]12C[C@H]1[C@@](CF)(c1cc(Nc3nccc4cc(C#N)cnc34)ccc1F)N=C(N)S2 [Example 717, 8-((3-((1S,5S,6S)-3-amino-5-(fluoromethyl)-1-(methoxymethyl)-2-thia-4-azabicyclo[4.1.0]hept-3-en-5-yl)-4-fluorophenyl)amino)-1,7-naphthyridine-3-carbonitrile] | > 400 | 0.00332 | 0.0239 | 0.0072 |
| N#CC[C@]12C[C@H]1[C@@](CF)(c1cc(NC(=O)c3ccc(Cl)cn3)ccc1F)N=C(N)S2 [Example 718, N-(3-((1R,5S,6S)-3-amino-1-(cyanomethyl)-5-(fluoromethyl)-2-thia-4-azabicyclo[4.1.0]hept-3-en-5-yl)-4-fluorophenyl)-5-chloro-2-pyridinecarboxamide] | 921 | 0.00131 | 0.04 | 0.00367 |
| N#CC[C@]12C[C@H]1[C@@](CF)(c1cc(Nc3nccc4cc(C#N)cnc34)ccc1F)N=C(N)S2 [Example 719, 8-((3-((1R,5S,6S)-3-amino-1-(cyanomethyl)-5-(fluoromethyl)-2-thia-4-azabicyclo[4.1.0]hept-3-en-5-yl)-4-fluorophenyl)amino)-1,7-naphthyridine-3-carbonitrile] | 1490 | 0.00397 | 0.0138 | 0.00442 |
| C#CCOc1cnc2c(Nc3ccc(F)c([C@@]4(CF)N=C(N)S[C@@]5(CC#N)C[C@H]54)c3)nccc2n1 [Example 720, ((1R,5S,6S)-3-amino-5-(fluoromethyl)-5-(2-fluoro-5-((2-(2-propyn-1-yloxy)pyrido[3,4-b]pyrazin-5-yl)amino)phenyl)-2-thia-4-azabicyclo[4.1.0]hept-3-en-1-yl)acetonitrile] | 648 | 0.0273 | 0.00151 | 0.000935 |
| N#CC[C@]12C[C@H]1[C@@](CF)(c1cc(Nc3nccc4nc(OCc5ncco5)cnc34)ccc1F)N=C(N)S2 [Example 721, ((1R,5S,6S)-3-amino-5-(fluoromethyl)-5-(2-fluoro-5-((2-(1,3-oxazol-2-ylmethoxy)pyrido[3,4-b]pyrazin-5-yl)amino)phenyl)-2-thia-4-azabicyclo[4.1.0]hept-3-en-1-yl)acetonitrile] | 2130 | 0.0677 | 0.00474 | 0.00162 |
| NC1=N[C@](CF)(c2cc(NC(=O)c3ccc(Cl)cn3)ccc2F)[C@@H]2C[C@]2(Cn2ccnn2)S1 [Example 722, N-(3-((1S,5S,6S)-3-amino-5-(fluoromethyl)-1-(1H-1,2,3-triazol-1-ylmethyl)-2-thia-4-azabicyclo[4.1.0]hept-3-en-5-yl)-4-fluorophenyl)-5-chloro-2-pyridinecarboxamide] | 684 | < 0.00203 | 0.0209 | 0.0118 |
| N#CCC[C@]12C[C@H]1[C@@](CF)(c1cc(NC(=O)c3ccc(Cl)cn3)ccc1F)N=C(N)S2 [Example 723, N-(3-((1S,5S,6S)-3-amino-1-(2-cyanoethyl)-5-(fluoromethyl)-2-thia-4-azabicyclo[4.1.0]hept-3-en-5-yl)-4-fluorophenyl)-5-chloro-2-pyridinecarboxamide] | 282 | < 0.00203 | 0.00431 | 0.00169 |
| C#CCOc1cnc2c(Nc3ccc(F)c([C@@]4(CF)N=C(N)S[C@@]5(Cn6cc(C)nn6)C[C@H]54)c3)nccc2n1 [Example 724, N-(3-((1S,5S,6S)-3-amino-5-(fluoromethyl)-1-((4-methyl-1H-1,2,3-triazol-1-yl)methyl)-2-thia-4-azabicyclo[4.1.0]hept-3-en-5-yl)-4-fluorophenyl)-2-(2-propyn-1-yloxy)pyrido[3,4-b]pyrazin-5-amine] | 1080 | 0.0746 | 0.00712 | 0.00208 |
| Cc1cnnn1C[C@]12C[C@H]1[C@@](CF)(c1cc(NC(=O)c3ccc(Cl)cn3)ccc1F)N=C(N)S2 [Example 725, N-(3-((1S,5S,6S)-3-amino-5-(fluoromethyl)-1-((5-methyl-1H-1,2,3-triazol-1-yl)methyl)-2-thia-4-azabicyclo[4.1.0]hept-3-en-5-yl)-4-fluorophenyl)-5-chloro-2-pyridinecarboxamide] | 1160 | 0.00251 | 0.0148 | 0.00565 |
| COC[C@]12C[C@H]1[C@@](C)(c1cc(Nc3nccc4cc(OCc5cnco5)cnc34)cc(F)c1F)N=C(N)S2 [Example 726, N-(3-((1S,5S,6S)-3-amino-1-(methoxymethyl)-5-methyl-2-thia-4-azabicyclo[4.1.0]hept-3-en-5-yl)-4,5-difluorophenyl)-3-(1,3-oxazol-5-ylmethoxy)-1,7-naphthyridin-8-amine] | > 400 | 0.641 | 0.406 | 0.179 |
| COC[C@]12C[C@H]1[C@@](C)(c1cc(Nc3nccc4cc(OCC#N)cnc34)cc(F)c1F)N=C(N)S2 [Example 729, ((8-((3-((1S,5S,6S)-3-amino-1-(methoxymethyl)-5-methyl-2-thia-4-azabicyclo[4.1.0]hept-3-en-5-yl)-4,5-difluorophenyl)amino)-1,7-naphthyridin-3-yl)oxy)acetonitrile] | 856 | 0.385 | 0.0457 | 0.0282 |
| COC[C@]12C[C@H]1[C@@](C)(c1cc(Nc3nccc4cc(OCc5ncon5)cnc34)cc(F)c1F)N=C(N)S2 [Example 730, N-(3-((1S,5S,6S)-3-amino-1-(methoxymethyl)-5-methyl-2-thia-4-azabicyclo[4.1.0]hept-3-en-5-yl)-4,5-difluorophenyl)-3-(1,2,4-oxadiazol-3-ylmethoxy)-1,7-naphthyridin-8-amine] | 1380 | 1.03 | 0.0759 | 0.0157 |
| COC[C@]12C[C@H]1[C@@](C)(c1cc(Nc3nccc4cc(OCC(F)(F)C(F)F)cnc34)cc(F)c1F)N=C(N)S2 [Example 731, N-(3-((1S,5S,6S)-3-amino-1-(methoxymethyl)-5-methyl-2-thia-4-azabicyclo[4.1.0]hept-3-en-5-yl)-4,5-difluorophenyl)-3-(2,2,3,3-tetrafluoropropoxy)-1,7-naphthyridin-8-amine] | 1100 | 3.83 | 1.3 | 0.0668 |
| COC[C@]12C[C@H]1[C@@](C)(c1cc(NC(=O)c3ccc(OCC(F)(F)C(F)F)cn3)cc(F)c1F)N=C(N)S2 [Example 732, N-(3-((1S,5S,6S)-3-amino-1-(methoxymethyl)-5-methyl-2-thia-4-azabicyclo[4.1.0]hept-3-en-5-yl)-4,5-difluorophenyl)-5-(2,2,3,3-tetrafluoropropoxy)-2-pyridinecarboxamide] | 600 | 0.737 | 0.034 | 0.00339 |
